Experiments:
[1] = test system: MC38 colon adenocarcinoma; assay: Compound #1 with 5FU against colon adenocarcinoma (Example 95); type: in vivo, C57/BL mice
Procedure: C57/BL mice 6-8 weeks old (n=7-9/gr) were injected with 3×10^5 MC38 colon adenocarcinoma cells s.c. on day 0. On day 7, tumor-bearing mice were randomized and injected with 5FU at 20 mg/kg either alone or in combination with levamisole at 20 mg/kg i.p. or with compound #1 at 25 and 50 mg/kg i.p. over a four week period. During this period, animals were treated for 5 consecutive days, untreated for 2 days, and treated again for 5 consecutive days per week for 4 weeks.

spleen cells = assay: Immunophenotyping on spleen cells, combination with 5 Fluorouracil; type: in vivo, C57/BLJ6 mice; settings: 5 FU 80 mg/kg alone, N = 4
Procedure: (§1) After in vivo drugs analysis, the drugs were evaluated on whole blood for drug stability and toxicity. Furthermore, in vivo/ex vivo analysis was performed on normal and cyclophosphamide immunosuppressed animals plus 5Fu-treated animals. Cell immunophenotyping was performed on mouse-treatedblood and spleen. The following cell surface antigens were analyzed:
(§2) CD3 (all T cells), CD4 (T helper/inducer, binds class II-restricted T cells), CD8a (cytotoxic T cells, CTL adhesion), CD11a (T, B, NK, some stem cells, CTL adhesion anti LFA-1α), MAC-1 (monocyte/macrophage), NK (natural killer cells), Ly5 (B cells), CD45 (all leukocytes, protein tyrosine phosphates), and TCR (T cell receptor).
(§3) C57/BLJ6 mice (6-8 weeks old) were injected daily for 4 consecutive days, sacrificed at day 5 and immunophenotyping was performed on blood and spleen cells.
(§4) The cells were washed twice in PBS, resuspended in 1 ml of RPMI 2% FBS, and incubated for 45 min. on ice with monoclonal antibody. The cells were washed once, fixed with 1% paraformaldehyde, then analyzed using XL Coulter® counter.

blood cells [2] = assay: Immunophenotyping on blood cells, combination with 5 Fluorouracil; type: in vivo, C57/BLJ6 mice; settings: 5 FU 80 mg/kg alone, N = 4
Procedure: as §1, §2, §3, §4

virus = settings: cited from earlier work
[3] = cited from earlier work
immune system = settings: prior art; cited from earlier work
DA-3 mammary carcinoma [4] = assay: Compound #1 with Cytoxan 28 mg/kg against DA-3 mammary carcinoma, tumor sizes (Example 94); type: in vivo, Balb/c mice; design: key: tumor volume = length × width²/2
Procedure: (§5) Parameters of effect were measured by inhibition of tumor outgrowth and growth rate [tumors measured along the longest axis (length) and the perpendicular shortest axis (width) and the tumor volumes (T.V.±S.E.) was calculated by the formula T.V.=length (cm)×(width cm)^2 /2.] assessment of body weight loss.
(§6) In another experiment, the CTX treatment was prolonged. Balb/c mice were injected s.c. with 5×10^5 DA-3 tumor cells at day 0. At day 4 when established tumors appeared, tumor-bearing animals were randomized (n=11/gr.) and injected with CTX (at 28 mg/kg) i.v. bolus injections at days 4, 11, and 18. […]

DA-3 mammary carcinoma [5] = assay: Tumor outgrowth of breast carcinoma, with cyclophosphamide (Example 92); type: in vivo, Balb/C mice; settings: CY 100 mg/kg
Procedure: Balb/C Mice (n-5/Gr) were used along with DA-3 mammary carcinoma cell line. The mice were treated from -2 to 13 days. Animals were monitored for tumor takes/tumor size and body weights for three weeks from Day 0 until Day 21. D0 was the day of tumor cell inoculation and D21 was the day of experiment termination.
as §5
The statistical significance of difference between tumor takes and tumor sizes of control-untreated and drug-treated groups is estimated using the Chi-square and Student's t tests respectively with significance determined at n<0.05.
The mice were divided into the following 5 groups:
Gr.1--Normal Saline (0.2 ml/mouse i.p. starting at D2)
Gr.2--CY (100 mg/kg single bolus i.v. at D0)
Gr.3--Compound #1 (25 mg/kg i.p. starting at D2)
Gr.4--Compound #1 (50 mg/kg i.p. starting at D2)
Gr.5--CY (100 mg/kg i.v. at D0+compound #1 50 mg/kg i.p. starting at D2)

blood cells [6] = assay: Immunophenotyping on blood cells, combination with cyclophosphamide; type: in vivo, C57/BLJ6 mice; settings: cyclophosphamide 100 mg/kg alone, N = 4
Procedure: as §1, §2, §3, §4

[7] = Body weight, compound #1 with Cytoxan 28 mg/kg (Example 94); type: in vivo, Balb/c mice; design: body weight: unit not given here
Procedure: as §6

[8] = single agent (CTX 28 mg/kg days 4, 11, 18, or BCH-1393 50 mg/kg days 3-28), day 4
[9] = single agent (CTX 28 mg/kg or BCH-1393 50 mg/kg), day 7
[10] = single agent (CTX 28 mg/kg or BCH-1393 50 mg/kg), day 9
[11] = single agent (CTX 28 mg/kg or BCH-1393 50 mg/kg), day 11
[12] = single agent (CTX 28 mg/kg or BCH-1393 50 mg/kg), day 14
[13] = single agent (CTX 28 mg/kg or BCH-1393 50 mg/kg), day 16
[14] = single agent (CTX 28 mg/kg or BCH-1393 50 mg/kg), day 18
[15] = single agent (CTX 28 mg/kg or BCH-1393 50 mg/kg), day 21
[16] = single agent (CTX 28 mg/kg or BCH-1393 50 mg/kg), day 23
[17] = single agent (CTX 28 mg/kg or BCH-1393 50 mg/kg), day 25
[18] = single agent (CTX 28 mg/kg or BCH-1393 50 mg/kg), day 28
[19] = single agent (CTX 28 mg/kg or BCH-1393 50 mg/kg), day 30

## O=c1[nH]cc(F)c(=O)[nH]1 [5 FU, 5-fluorouracil, reference compound]
[1]; 5FU 20 mg/kg alone
  anti-tumor response: moderate anti-tumor response
Spleen cells
  CD4+ CD45- (mean): 10.0
  NK+ (mean): 4.22
Blood cells [2]
  CD8+ CD45+ (mean): 6.66
  NK+ (mean): 3.24

## Nc1nc2c(ccn2[C@@H]2O[C@H](CO)[C@@H](O)[C@H]2O)c(=O)[nH]1 [7-deazaguanosine]
virus; after oral administration, preliminary
  immunostimulatory and antiviral activity: significant immunostimulatory and antiviral activity after oral administration

## Nc1nc2c(sc(=O)n2[C@@H]2O[C@H](CO)[C@@H](O)[C@H]2O)c(=O)[nH]1 [7-thia-8-oxoguanosine]
[3]
  oral bioavailability: lack of oral bioavailability
virus; humans
  antiviral results: few encouraging results
Immune system
  immunomodulating activity: activate NK and B cells in the immune system, and to induce interferon

## c1ccc([C@H]2CN3CCSC3=N2)cc1 [Levamisole, levamisole]
[1]; 5FU 20 mg/kg plus Levamisole 20 mg/kg
  anti-tumor response: moderate anti-tumor response
[3]; adjuvant levamisole therapy for malignant melanoma
  adverse effect: induces serious thrombocytopenia

## O=P1(N(CCCl)CCCl)NCCCO1 (stereo not shown) [cyclophosphamide, reference compound]
DA-3 mammary carcinoma [4]; [8]
  tumor size: 4.2
DA-3 mammary carcinoma [4]; [9]
  tumor size: 10.5
DA-3 mammary carcinoma [4]; [10]
  tumor size: 18.6
DA-3 mammary carcinoma [4]; [11]
  tumor size: 30.7
DA-3 mammary carcinoma [4]; [12]
  tumor size: 50.6
DA-3 mammary carcinoma [4]; [13]
  tumor size: 54.5
DA-3 mammary carcinoma [4]; [14]
  tumor size: 63.4
DA-3 mammary carcinoma [4]; [15]
  tumor size: 88.5
DA-3 mammary carcinoma [4]; [16]
  tumor size: 93.4
DA-3 mammary carcinoma [4]; [17]
  tumor size: 106.3
DA-3 mammary carcinoma [4]; [18]
  tumor size: 130.9
DA-3 mammary carcinoma [4]; [19]
  tumor size: 151.6
DA-3 mammary carcinoma [5]; day 4
  Tumor takes: 5/5
DA-3 mammary carcinoma [5]; day 6
  Tumor takes: 5/5
DA-3 mammary carcinoma [5]; day 8
  Tumor takes: 5/5
DA-3 mammary carcinoma [5]; day 10
  Tumor takes: 5/5
Blood cells [6]
  CP8+ CD45+ (mean): 15.05
[7]; [8]
  body weight: 19.2
[7]; [9]
  body weight: 19.8
[7]; [10]
  body weight: 19.8
[7]; [11]
  body weight: 19.9
[7]; [12]
  body weight: 19.2
[7]; [13]
  body weight: 19.7
[7]; [14]
  body weight: 19.6
[7]; [15]
  body weight: 19.8
[7]; [16]
  body weight: 19.7
[7]; [17]
  body weight: 20.1
[7]; [18]
  body weight: 20.3
[7]; [19]
  body weight: 20.4
